Patent US10787430B2, “Hemoglobin modifier compounds and uses thereof” (FronThera U.S. Pharmaceuticals LLC, priority 2016, dated 2020)

Molecular target: T1, hemoglobin (20% hct blood) (Homo sapiens, UniProt P68871+P69905)
T1 construct: Normal whole blood was collected from adult healthy donors; from tissue; host or cells: normal human whole blood (red blood cells), adult healthy donors
Assay: Dose-dependent whole blood OEC studies
Assay type: cell-based
Conditions: 37° C., 1 hr; for delta p50 0.2 mM: 0.2 mM compound; for delta p50 0.5 mM: 0.5 mM compound
Description: Materials: Normal whole blood was collected from adult healthy donors at the Virginia Commonwealth University after informed consent. The use of these human samples is in accordance with regulations of the IRB for Protection of Human Subjects. Compounds (50 mM-100 mM concentration in DMSO) were stored at 15° C. or room temperature until use.
To 2 ml 20% hct blood, 0.2 or 0.5 or 1 mM compound was added and kept shaking at 37° C. for 1 hr. OEC analysis was performed as described above to determine partial pressure of oxygen (pO2) and Hb oxygen saturation values (sO2). A control without compound but containing equivalent amount of DMSO was performed (1%). GBT440 was used as a positive control. Table 2 below lists the delta p50% values.

T1 sequence (P69905 2-142 limits assumed): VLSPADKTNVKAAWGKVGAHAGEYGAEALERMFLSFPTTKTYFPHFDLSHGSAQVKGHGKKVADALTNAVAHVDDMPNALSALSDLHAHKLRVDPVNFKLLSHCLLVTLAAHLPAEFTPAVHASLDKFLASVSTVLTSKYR
T1 sequence (P68871 2-147 limits assumed): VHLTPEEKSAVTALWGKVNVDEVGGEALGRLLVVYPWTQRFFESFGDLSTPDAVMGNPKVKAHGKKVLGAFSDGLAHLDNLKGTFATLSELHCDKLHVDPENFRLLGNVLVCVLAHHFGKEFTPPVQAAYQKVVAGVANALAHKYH

SMILES | delta p50 0.2 mM [%] | delta p50 0.5 mM
CC(C)n1nccc1-c1ncccc1COc1ccc2ncsc2c1C=O [Example 12, 6-((2-(1-isopropyl-1H-pyrazol-5-yl)pyridin-3-yl)methoxy)benzo[d]thiazole-7-carbaldehyde] | −26.60 | −58.40%
CC(C)n1nccc1-c1ncccc1COc1ccc2scnc2c1C=O [Example 16, 5-((2-(1-isopropyl-1H-pyrazol-5-yl)pyridin-3-yl)methoxy)benzo[d]thiazole-4-carbaldehyde] | −8.90 | −14.70%
CC(C)n1nccc1-c1ncccc1COc1ccc2snnc2c1C=O [Example 17, 5-((2-(1-isopropyl-1H-pyrazol-5-yl)pyridin-3-yl)methoxy)benzo[d][1,2,3]thiadiazole-4-carbaldehyde] | −12 | −30%
CC(C)n1nccc1-c1ncccc1COc1ccc2ncncc2c1C=O [Example 19, 6-((2-(1-isopropyl-1H-pyrazol-5-yl)pyridin-3-yl)methoxy)quinazoline-5-carbaldehyde] | −8.20 | −18.10%
[2H]C([2H])([2H])C(n1nccc1-c1ncccc1COc1cc(F)cc(O)c1C=O)C([2H])([2H])[2H] [Example 31, 4-fluoro-2-hydroxy-6-((2-(1-(propan-2-yl-1,1,1,3,3,3-d6)-1H-pyrazol-5-yl)pyridin-3-yl)methoxy)benzaldehyde] | −9.80 | −36.10%
[2H]C([2H])([2H])C(n1nccc1-c1ncccc1COc1ccc2ncoc2c1C=O)C([2H])([2H])[2H] [Example 33, 6-((2-(1-(propan-2-yl-1,1,1,3,3,3-d6)-1H-pyrazol-5-yl)pyridin-3-yl)methoxy)benzo[d]oxazole-7-carbaldehyde] | −12.70 | −39.70%
[2H]C([2H])([2H])C(n1ncc(F)c1-c1ncncc1COc1cc(F)cc(O)c1C=O)C([2H])([2H])[2H] [Example 34, 4-fluoro-2-((4-(4-fluoro-1-(propan-2-yl-1,1,1,3,3,3-d6)-1H-pyrazol-5-yl)pyrimidin-5-yl)methoxy)-6-hydroxybenzaldehyde] | −6.50 | −10.00%
[2H]C([2H])([2H])C(n1nccc1-c1ncncc1COc1cc(F)cc(O)c1C=O)C([2H])([2H])[2H] [Example 36, 4-fluoro-2-hydroxy-6-((4-(1-(propan-2-yl-1,1,1,3,3,3-d6)-1H-pyrazol-5-yl)pyrimidin-5-yl)methoxy)benzaldehyde] | −9.30 | −14%
[2H]C([2H])(Oc1ccc2ncoc2c1C=O)c1cncnc1-n1ccnc1C(C)C [Example 43, 6-((4-(2-isopropyl-1H-imidazol-1-yl)pyrimidin-5-yl)methoxy-d2)benzo[d]oxazole-7-carbaldehyde] | −9.90 | −28.10%
[2H]C(C)(C)n1nccc1-c1ncccc1COc1cccc(O)c1C=O [Example 48, 2-hydroxy-6-((2-(1-(propan-2-yl-2-d)-1H-pyrazol-5-yl)pyridin-3-yl)methoxy)benzaldehyde] | −11 | −38.10%
[2H]C(C)(C)n1nccc1-c1ncncc1COc1cccc(O)c1C=O [Example 50, 2-hydroxy-6-((4-(1-(propan-2-yl-2-d)-1H-pyrazol-5-yl)pyrimidin-5-yl)methoxy)benzaldehyde] | −16.10 | −38.4.%
[2H]C(C)(C)n1nccc1-c1nccnc1COc1cccc(O)c1C=O [Example 51, 2-hydroxy-6-((3-(1-(propan-2-yl-2-d)-1H-pyrazol-5-yl)pyrazin-2-yl)methoxy)benzaldehyde] | −13.10 | −36.40%
CC(C)n1nccc1-c1ncncc1COc1ccc2ncsc2c1C=O [Example 53, 6-((4-(1-isopropyl-1H-pyrazol-5-yl)pyrimidin-5-yl)methoxy)benzo[d]thiazole-7-carbaldehyde] | −20.50 | −37.80%
CC(C)n1nccc1-c1ncncc1COc1ccc2ncoc2c1C=O [Example 54, 6-((4-(1-isopropyl-1H-pyrazol-5-yl)pyrimidin-5-yl)methoxy)benzo[d]oxazole-7-carbaldehyde] | −12.00 | −35.00%

The next lines start with the values.

delta p50 0.2 mM [%] | delta p50 0.5 mM | SMILES
−12.80 | −37.60% | CC(C)n1nccc1-c1ncccc1COc1ccc2sncc2c1C=O [Example 11, 5-((2-(1-isopropyl-1H-pyrazol-5-yl)pyridin-3-yl)methoxy)benzo[d]isothiazole-4-carbaldehyde]
−2.80 | −8.10% | CC(C)n1nccc1-c1ncccc1COc1ccc2nnsc2c1C=O [Example 18, 6-((2-(1-isopropyl-1H-pyrazol-5-yl)pyridin-3-yl)methoxy)benzo[d][1,2,3]thiadiazole-7-carbaldehyde]
−12.90 | −35.50% | CC(C)n1ncc(F)c1-c1ncccc1COc1ccc2ncoc2c1C=O [Example 22, 6-((2-(4-fluoro-1-isopropyl-1H-pyrazol-5-yl)pyridin-3-yl)methoxy)benzo[d]oxazole-7-carbaldehyde]
−14.30 | −36.10% | [2H]C([2H])(Oc1cccc(O)c1C=O)c1cccnc1-c1c(F)cnn1C(C)C [Example 25, 2-((2-(4-fluoro-1-isopropyl-1H-pyrazol-5-yl)pyridin-3-yl)methoxy-d2)-6-hydroxybenzaldehyde]
−11.10 | −26.10% | [2H]C([2H])(Oc1cc(F)cc(O)c1C=O)c1cccnc1-c1c(F)cnn1C(C)C [Example 26, 4-fluoro-2-((2-(4-fluoro-1-isopropyl-1H-pyrazol-5-yl)pyridin-3-yl)methoxy-d2)-6-hydroxybenzaldehyde]
−11.90 | −40.70% | [2H]C([2H])(Oc1ccc2ncoc2c1C=O)c1cccnc1-c1ccnn1C(C)C [Example 28, 6-((2-(1-isopropyl-1H-pyrazol-5-yl)pyridin-3-yl)methoxy-d2)benzo[d]oxazole-7-carbaldehyde]
−12.70 | −39.20% | [2H]C([2H])([2H])C(n1ncc(F)c1-c1ncccc1COc1cccc(O)c1C=O)C([2H])([2H])[2H] [Example 32, 2-((2-(4-fluoro-1-(propan-2-yl-1,1,1,3,3,3-d6)-1H-pyrazol-5-yl)pyridin-3-yl)methoxy)-6-hydroxybenzaldehyde]
−10.30 | −29.80% | [2H]C([2H])([2H])C(n1ncc(F)c1-c1ncncc1COc1cccc(O)c1C=O)C([2H])([2H])[2H] [Example 35, 2-((4-(4-fluoro-1-(propan-2-yl-1,1,1,3,3,3-d6)-1H-pyrazol-5-yl)pyrimidin-5-yl)methoxy)-6-hydroxybenzaldehyde]
−16.20 | −46.10% | [2H]C([2H])([2H])C(n1nccc1-c1ncncc1COc1cccc(O)c1C=O)C([2H])([2H])[2H] [Example 37, 2-hydroxy-6-((4-(1-(propan-2-yl-1,1,1,3,3,3-d6)-1H-pyrazol-5-yl)pyrimidin-5-yl)methoxy)benzaldehyde]
−12.20 | −29.30% | [2H]C([2H])(Oc1cc(F)cc(O)c1C=O)c1cncnc1-c1ccnn1C(C)C [Example 39, 4-fluoro-2-hydroxy-6-((4-(1-isopropyl-1H-pyrazol-5-yl)pyrimidin-5-yl)methoxy-d2)benzaldehyde]
−6 | −12% | [2H]C([2H])(Oc1ccc(F)c(O)c1C=O)c1cncnc1-c1ccnn1C(C)C [Example 40, 3-fluoro-2-hydroxy-6-((4-(1-isopropyl-1H-pyrazol-5-yl)pyrimidin-5-yl)methoxy-d2)benzaldehyde]
−14.40 | −30.20% | [2H]C([2H])(Oc1cccc(O)c1C=O)c1cncnc1-c1c(F)cnn1C(C)C [Example 41, 2-((4-(4-fluoro-1-isopropyl-1H-pyrazol-5-yl)pyrimidin-5-yl)methoxy-d2)-6-hydroxybenzaldehyde]
−10.20 | −23.10% | [2H]C([2H])(Oc1cccc(O)c1C=O)c1cncnc1-n1ccnc1C(C)C [Example 42, 2-hydroxy-6-((4-(2-isopropyl-1H-imidazol-1-yl)pyrimidin-5-yl)methoxy-d2)benzaldehyde]
−6.90 | −22.10% | [2H]C([2H])(Oc1cc(F)cc(O)c1C=O)c1cncnc1-n1ccnc1C(C)C [Example 44, 4-fluoro-2-hydroxy-6-((4-(2-isopropyl-1H-imidazol-1-yl)pyrimidin-5-yl)methoxy-d2)benzaldehyde]
−10 | −29.80% | [2H]C([2H])(Oc1cccc(O)c1C=O)c1cccnc1-n1ccnc1C1CC1 [Example 45, 2-((2-(2-cyclopropyl-1H-imidazol-1-yl)pyridin-3-yl)methoxy-d2)-6-hydroxybenzaldehyde]
−12.80 | −37.90% | [2H]C([2H])(Oc1cccc(O)c1C=O)c1ncccc1-c1ccnn1C(C)C [Example 46, 2-hydroxy-6-((3-(1-isopropyl-1H-pyrazol-5-yl)pyridin-2-yl)methoxy-d2)benzaldehyde]
−15.30 | −40.80% | [2H]C([2H])(Oc1cc(F)cc(O)c1C=O)c1ncccc1-c1ccnn1C(C)C [Example 47, 4-fluoro-2-hydroxy-6-((3-(1-isopropyl-1H-pyrazol-5-yl)pyridin-2-yl)methoxy-d2)benzaldehyde]
